# Reference: US20050176775A1, “Substituted pyridinones” (priority 2003, published 2005)
# System: not given
# Experiment: not given
# Settings: not given
row,melting point,SMILES
1,95 to 98 °C,"CCOC(=O)Cc1cccc(Cn2ccc(OCc3ccc(F)cc3F)c(Br)c2=O)c1 [Example 127, Ethyl {3-[3-Bromo-4-(2,4-difluorobenzyloxy)-2-oxo-2H-pyridin-1-ylmethyl]-phenyl}acetate]"
2,164 to 167 °C,"NC(=O)Cc1cccc(Cn2ccc(OCc3ccc(F)cc3F)c(Br)c2=O)c1 [Example 128, 2-{3-[3-Bromo-4-(2,4-difluorobenzyloxy)-2-oxo-2H-pyridin-1-ylmethyl]phenyl}acetamide]"
3,127 to 129 °C,"Cc1c(OCc2ccc(F)cc2F)ccn(Cc2cccc(F)c2)c1=O [Example 129, 4-(2,4-Difluorobenzyloxy)-1-(3-fluorobenzyl)-3-methyl-1H-pyridin-2-one]"
4,164 to 167 °C,"O=c1c(I)c(OCc2ccc(F)cc2F)ccn1Cc1cccc(F)c1 [Example 130, 4-(2,4-Difluorobenzyloxy)-1-(3-fluorobenzyl)-3-iodo-1H-pyridin-2-one]"
5,118 to 120 °C,"Cc1c(OCc2ccc(F)cc2F)cc(C)n(C2CCCCC2)c1=O [Example 132, 1-cyclohexyl-4-(2,4-difluorobenzyloxy)-3,6-dimethyl-1H-pyridin-2-one]"

# Target: T1, human p38 kinase alpha (Homo sapiens, UniProt Q16539)
# T1 construct: made in house; host or cells: E. coli DH10B
# Experiment: p38 alpha kinase assay (PHAS-I / 32P-ATP format or EGFRP / 33P-ATP format)
# Type: biochemical
# Settings: inhibition of activated human p38 kinase alpha; the text does not say which of the two in vitro formats was used
# Description: The ability of compounds to inhibit human p38 kinase alpha was evaluated using two in vitro assay methods. In the first method, activated human p38 kinase alpha phosphorylates a biotinylated substrate, PHAS-I (phosphorylated heat and acid stable protein-insulin inducible), in the presence of gamma ^32P-ATP (^32P-ATP). PHAS-I was biotinylated prior to the assay and provides a means of capturing the substrate, which is phosphorylated during the assay. p38 Kinase was activated by MKK6. Compounds were tested in 10 fold serial dilutions over the range of 100 μM to 0.001 μM using 1% DMSO. Each concentration of inhibitor was tested in triplicate.
# All reactions were carried out in 96 well polypropylene plates. Each reaction well contained 25 mM HEPES pH 7.5, 10 mM magnesium acetate and 50 μM unlabeled ATP. […] Activated human p38 kinase alpha was used at 1 μg per 50 μl reaction volume representing a final concentration of 0.3 μM. […]
# Following incubation, 20 μl of reaction mixture was transferred to a high capacity streptavidin coated filter plate (SAM-streptavidin-matrix, Promega) prewetted with phosphate buffered saline. […] The plates were sealed and counted.
# Compounds were tested in 10 fold serial dilutions over the range of 100 μM to 0.001 μM in 1% DMSO. […] 150 μl of Microscint 40 was then added to each well of the Microlite plate, and the plate was sealed, mixed, and counted.
# T1 sequence (Q16539 whole entry): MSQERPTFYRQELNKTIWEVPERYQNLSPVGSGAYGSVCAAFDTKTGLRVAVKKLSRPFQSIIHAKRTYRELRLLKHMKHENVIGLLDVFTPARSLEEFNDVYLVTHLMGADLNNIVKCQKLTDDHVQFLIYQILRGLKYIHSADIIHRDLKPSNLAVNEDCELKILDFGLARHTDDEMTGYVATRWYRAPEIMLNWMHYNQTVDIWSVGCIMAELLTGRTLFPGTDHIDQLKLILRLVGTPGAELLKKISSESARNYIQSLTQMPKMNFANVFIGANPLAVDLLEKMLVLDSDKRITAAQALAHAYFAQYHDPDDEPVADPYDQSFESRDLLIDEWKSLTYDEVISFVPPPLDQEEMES
row,IC50,SMILES
1,< 1 µM,"Cc1ccc(C(N)=O)cc1-n1c(C)cc(OCc2ccc(F)cc2F)c(Br)c1=O (single isomer, unassigned) [Example 736, (+)-3-[3-bromo-4-[(2,4-difluorobenzyl)oxy]-6-methyl-2-oxopyridin-1(2H)-yl]-4-methylbenzamide]"
2,25 to 100 µM,"Cc1c(/C=N/O)c(OCc2ccc(F)cc2F)c(Br)c(=O)n1-c1c(F)cccc1F [Example 565, 5-bromo-4-[(2,4-difluorobenzyl)oxy]-1-(2,6-difluorophenyl)-2-methyl-6-oxo-1,6-dihydropyridine-3-carbaldehyde Oxime]"
